Test in all cases: Kinase panel profiling at 1 µmol/L (MSA or IMAP), percentage inhibition
What all share (type): biochemical

Assay [1] addresses T1, panel of 255 wild-type kinases (Homo sapiens, UniProt Q13237).
T1 sequence (Q13237 1-762): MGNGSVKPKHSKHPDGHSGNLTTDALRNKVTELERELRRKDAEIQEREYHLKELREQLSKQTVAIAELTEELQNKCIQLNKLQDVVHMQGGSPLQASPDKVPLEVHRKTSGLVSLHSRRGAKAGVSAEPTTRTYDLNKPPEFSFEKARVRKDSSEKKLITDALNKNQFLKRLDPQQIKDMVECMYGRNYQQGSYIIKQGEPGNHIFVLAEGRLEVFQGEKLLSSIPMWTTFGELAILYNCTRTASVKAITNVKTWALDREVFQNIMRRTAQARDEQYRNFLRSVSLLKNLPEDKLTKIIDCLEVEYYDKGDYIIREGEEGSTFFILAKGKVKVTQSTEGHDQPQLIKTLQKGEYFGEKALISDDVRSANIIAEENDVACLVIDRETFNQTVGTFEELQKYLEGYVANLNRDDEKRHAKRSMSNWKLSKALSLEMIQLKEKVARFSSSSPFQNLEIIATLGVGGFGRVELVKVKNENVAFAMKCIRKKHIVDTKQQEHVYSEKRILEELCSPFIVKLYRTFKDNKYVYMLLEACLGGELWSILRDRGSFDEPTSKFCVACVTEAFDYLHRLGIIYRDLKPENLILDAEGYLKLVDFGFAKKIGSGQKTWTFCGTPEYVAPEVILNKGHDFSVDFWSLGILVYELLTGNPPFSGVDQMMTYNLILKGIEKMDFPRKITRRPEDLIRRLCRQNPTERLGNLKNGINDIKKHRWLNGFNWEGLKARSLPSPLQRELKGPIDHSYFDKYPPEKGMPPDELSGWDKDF
The note with it: CGK2 kinase assay; 1 µmol/L single concentration; read-out: %-inhibition CGK2.

The target of assay [2] is T2, panel of 255 wild-type kinases (Homo sapiens, UniProt Q9H093).
T2 sequence (Q9H093 1-628): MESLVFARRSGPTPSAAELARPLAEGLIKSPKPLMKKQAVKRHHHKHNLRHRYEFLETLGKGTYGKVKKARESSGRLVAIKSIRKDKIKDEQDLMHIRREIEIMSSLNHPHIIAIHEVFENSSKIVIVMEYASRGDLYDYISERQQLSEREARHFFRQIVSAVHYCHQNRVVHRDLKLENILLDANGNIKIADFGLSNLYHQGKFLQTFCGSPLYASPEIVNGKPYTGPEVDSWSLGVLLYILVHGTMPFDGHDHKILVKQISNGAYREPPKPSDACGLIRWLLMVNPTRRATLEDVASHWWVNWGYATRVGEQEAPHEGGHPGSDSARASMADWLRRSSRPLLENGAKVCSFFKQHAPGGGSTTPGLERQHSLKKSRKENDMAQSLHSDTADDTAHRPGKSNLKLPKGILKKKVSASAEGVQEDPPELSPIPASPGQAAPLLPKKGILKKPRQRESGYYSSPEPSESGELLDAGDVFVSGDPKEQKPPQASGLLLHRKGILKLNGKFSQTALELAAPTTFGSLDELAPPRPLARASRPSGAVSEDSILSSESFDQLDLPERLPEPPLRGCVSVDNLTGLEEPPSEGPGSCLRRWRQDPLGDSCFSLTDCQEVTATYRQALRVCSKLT
The note with it: NuaK2; 1 µmol/L single concentration; read-out: %-inhibition, NuaK2.

Assay [3] deals with panel of 255 wild-type kinases (Homo sapiens, UniProt P49840). The note with it: kinase GSK3α; 1 µmol/L single concentration; read-out: %-inhibition at 1 µmol/L, GSK3α.
Assay [4] has as its target T3, panel of 255 wild-type kinases (Homo sapiens, UniProt P53778).
T3 sequence (P53778 1-367): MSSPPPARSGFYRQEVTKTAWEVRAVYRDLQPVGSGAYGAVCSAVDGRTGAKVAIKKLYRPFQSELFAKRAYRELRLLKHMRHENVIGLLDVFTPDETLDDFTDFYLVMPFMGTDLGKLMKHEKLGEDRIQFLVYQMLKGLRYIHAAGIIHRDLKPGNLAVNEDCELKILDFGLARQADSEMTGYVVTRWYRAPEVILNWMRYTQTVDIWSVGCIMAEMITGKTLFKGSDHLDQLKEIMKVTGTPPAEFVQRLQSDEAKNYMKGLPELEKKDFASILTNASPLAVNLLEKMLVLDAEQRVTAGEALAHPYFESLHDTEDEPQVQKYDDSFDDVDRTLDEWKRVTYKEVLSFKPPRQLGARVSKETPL
The note with it: p38γ; 1 µmol/L single concentration; read-out: %-inhibition, p38γ.

Assay [5] has as its target T4, panel of 255 wild-type kinases (Homo sapiens, UniProt Q15139).
T4 sequence (Q15139 1-912): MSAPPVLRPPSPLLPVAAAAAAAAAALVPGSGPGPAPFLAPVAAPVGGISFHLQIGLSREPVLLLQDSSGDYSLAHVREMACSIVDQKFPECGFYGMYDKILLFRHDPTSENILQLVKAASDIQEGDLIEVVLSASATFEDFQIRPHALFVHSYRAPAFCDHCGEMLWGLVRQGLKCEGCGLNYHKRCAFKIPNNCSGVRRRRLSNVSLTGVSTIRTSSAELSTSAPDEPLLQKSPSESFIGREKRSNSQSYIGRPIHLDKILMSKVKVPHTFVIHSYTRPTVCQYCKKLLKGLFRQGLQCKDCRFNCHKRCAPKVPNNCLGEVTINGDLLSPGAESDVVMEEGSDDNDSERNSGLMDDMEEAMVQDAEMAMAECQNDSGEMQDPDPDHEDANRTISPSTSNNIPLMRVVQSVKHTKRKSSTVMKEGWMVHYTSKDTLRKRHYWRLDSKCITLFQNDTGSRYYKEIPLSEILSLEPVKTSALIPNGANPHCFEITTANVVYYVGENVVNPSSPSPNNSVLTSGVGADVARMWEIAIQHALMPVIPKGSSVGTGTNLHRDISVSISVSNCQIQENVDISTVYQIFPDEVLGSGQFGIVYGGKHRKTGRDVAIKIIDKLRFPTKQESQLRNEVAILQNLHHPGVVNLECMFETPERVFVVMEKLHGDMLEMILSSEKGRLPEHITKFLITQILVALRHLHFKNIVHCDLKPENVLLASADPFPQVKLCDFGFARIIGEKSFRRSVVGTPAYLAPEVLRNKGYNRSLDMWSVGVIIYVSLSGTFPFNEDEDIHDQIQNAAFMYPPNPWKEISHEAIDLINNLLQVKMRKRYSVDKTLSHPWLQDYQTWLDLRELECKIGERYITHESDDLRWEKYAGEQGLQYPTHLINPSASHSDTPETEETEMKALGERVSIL
The note with it: kinase PKD1; 1 µmol/L single concentration; read-out: %-inhibition at 1 µmol/L, PKD1.

`Cc1nc(NC(=O)N2CCC[C@H]2C(N)=O)sc1-c1ccnc(C(C)(C)C(F)(F)F)c1` [alpelisib]: the inhibition at 1 µM was -5% in assay [1]; 6% in assay [2]; -2.64% in assay [3]; -6% in assay [4]; -2% in assay [5].

For `FC(F)(F)c1ccc(CNc2ccc(Cc3c[nH]c4ncc(Cl)cc34)cn2)cn1` [pexidartinib], the inhibition at 1 µM is 17% in assay [1]; 5% in assay [2]; 3% in assay [3]; 2.47% in assay [4]; -2.56% in assay [5].

On to `CCc1nc(C(N)=O)c(Nc2ccc(N3CCC(N4CCN(C)CC4)CC3)c(OC)c2)nc1NC1CCOCC1` [gilteritinib], for which the inhibition at 1 µM in assay [1] is 82%; in assay [2], 73%; in assay [3] it was 7.48%; in assay [4] it was -0.507%; in assay [5] it was 52%.

As for `O=C(Nc1cnn2ccc(N3CCC[C@@H]3c3cc(F)ccc3F)nc12)N1CC[C@H](O)C1` [larotrectinib], the inhibition at 1 µM was -0.443% in assay [1]; 0.385% in assay [2]; -6.65% in assay [3]; 2.3% in assay [4]; 0.148% in assay [5].
